Measurements as given in doi:10.1101/2025.11.20.689572v1 (biorxiv, 2025).
pEC50, pKi: −log10 of the molar value.

Legend:
HTR2A = HTR2A (Homo sapiens, UniProt P28223); test: cell-based; parameters: TRUPATH BRET2 G-protein dissociation; antagonist mode against agonist EC80; conditions: HEK293, read-out: N-Desmethyl Xanomeline, Assay=Gq; agonist mode, % of control agonist
CHRM3 = CHRM3 (Homo sapiens, UniProt P20309); test: cell-based
DRD1 = DRD1 (Homo sapiens, UniProt P21728); test: biochemical; parameters: species or system HEK293; PDSP competitive radioligand binding, membranes of transfected HEK293 cells, filtration, Ki by Cheng-Prusoff; conditions: read-out: N-desmethyl-xanomeline (PDSP) pKi (converted)
DRD1, sequence (P21728 whole entry): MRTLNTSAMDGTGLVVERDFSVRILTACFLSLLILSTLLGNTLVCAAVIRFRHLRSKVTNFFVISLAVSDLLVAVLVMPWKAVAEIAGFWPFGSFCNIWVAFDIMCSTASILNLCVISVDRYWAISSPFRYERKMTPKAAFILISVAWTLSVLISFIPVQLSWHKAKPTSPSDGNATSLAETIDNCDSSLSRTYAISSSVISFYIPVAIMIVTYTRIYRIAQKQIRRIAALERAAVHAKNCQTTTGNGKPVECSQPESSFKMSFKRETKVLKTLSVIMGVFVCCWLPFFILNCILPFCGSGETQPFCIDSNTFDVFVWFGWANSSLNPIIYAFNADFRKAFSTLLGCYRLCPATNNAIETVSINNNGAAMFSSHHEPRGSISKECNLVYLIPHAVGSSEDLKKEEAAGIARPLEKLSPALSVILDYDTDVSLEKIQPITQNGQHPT
Experimental: (§1) Competitive radioligand binding assays were performed at the NIMH Psychoactive Drug Screening Program (PDSP) using membranes from transiently transfected HEK293 cells in 96-well format as described. Complete, target-specific protocols are available at the PDSP website (https://pdsp.unc.edu/pdspweb/?site=assays). Primary screenings were run at a single test concentration (10 µM) in quadruplicate. […] Secondary assays were conducted in triplicate using 12-point serial dilutions (0, 0.1, 0.3, 1, 3, 10, 30, 100, 300 nM; 1, 3, 10 µM). Assays were performed in a final volume of 125 µL per well in binding buffer, as detailed in the NIMH PDSP protocols (e.g., standard binding buffer: 50 mM Tris-HCl, pH 7.4, 10 mM MgCl2, 0.1 mM EDTA). Radioligand concentrations were chosen near the target-specific Kd. Total and nonspecific binding were defined in the absence and presence, respectively, of 10 µM reference ligand specific for each receptor. After 90 min incubation at room temperature, reactions were terminated by vacuum filtration onto 0.3% polyethyleneimine-pretreated UniFilter-96 GF/C Microplates using a FilterMate harvester, washed three times with ice-cold buffer (50 mM Tris HCl, pH 7.4), dried, treated with MicroScint-O [compound left out] scintillation cocktails, and counted on a MicroBeta counter. Equilibrium inhibition constants (Ki) were calculated from fitted IC50 values using the Cheng–Prusoff equation [14] with the assay-specific radioligand concentration and Kd. TABLE 1. […] Results represented mean ± SEM from a minimum of 3 independent assays, each in triplicate. ND=not determined.

5-HT4 = target: T1, 5-HT4 (Homo sapiens, UniProt Q13639); test: biochemical; parameters: species or system HEK293; PDSP competitive radioligand binding, membranes of transfected HEK293 cells, filtration, Ki by Cheng-Prusoff; conditions: read-out: N-desmethyl-xanomeline (PDSP) pKi (converted)
T1 construct: gene HTR4
T1 sequence (Q13639 whole entry): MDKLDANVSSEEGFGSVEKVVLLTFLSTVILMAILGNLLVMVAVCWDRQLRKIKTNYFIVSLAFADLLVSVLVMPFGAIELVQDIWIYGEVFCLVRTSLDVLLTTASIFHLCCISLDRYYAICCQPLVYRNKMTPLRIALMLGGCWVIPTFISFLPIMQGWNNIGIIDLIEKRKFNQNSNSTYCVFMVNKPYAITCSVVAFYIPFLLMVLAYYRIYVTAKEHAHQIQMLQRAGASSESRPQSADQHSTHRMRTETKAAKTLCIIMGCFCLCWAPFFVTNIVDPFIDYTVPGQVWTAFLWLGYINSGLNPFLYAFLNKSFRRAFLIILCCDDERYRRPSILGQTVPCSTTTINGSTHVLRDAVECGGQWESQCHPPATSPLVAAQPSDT
Experimental: as §1

DAT = target: T2, DAT (Homo sapiens, UniProt Q01959); test: biochemical; parameters: species or system HEK293; PDSP competitive radioligand binding, membranes of transfected HEK293 cells, filtration, Ki by Cheng-Prusoff
T2 construct: gene SLC6A3
T2 sequence (Q01959 whole entry): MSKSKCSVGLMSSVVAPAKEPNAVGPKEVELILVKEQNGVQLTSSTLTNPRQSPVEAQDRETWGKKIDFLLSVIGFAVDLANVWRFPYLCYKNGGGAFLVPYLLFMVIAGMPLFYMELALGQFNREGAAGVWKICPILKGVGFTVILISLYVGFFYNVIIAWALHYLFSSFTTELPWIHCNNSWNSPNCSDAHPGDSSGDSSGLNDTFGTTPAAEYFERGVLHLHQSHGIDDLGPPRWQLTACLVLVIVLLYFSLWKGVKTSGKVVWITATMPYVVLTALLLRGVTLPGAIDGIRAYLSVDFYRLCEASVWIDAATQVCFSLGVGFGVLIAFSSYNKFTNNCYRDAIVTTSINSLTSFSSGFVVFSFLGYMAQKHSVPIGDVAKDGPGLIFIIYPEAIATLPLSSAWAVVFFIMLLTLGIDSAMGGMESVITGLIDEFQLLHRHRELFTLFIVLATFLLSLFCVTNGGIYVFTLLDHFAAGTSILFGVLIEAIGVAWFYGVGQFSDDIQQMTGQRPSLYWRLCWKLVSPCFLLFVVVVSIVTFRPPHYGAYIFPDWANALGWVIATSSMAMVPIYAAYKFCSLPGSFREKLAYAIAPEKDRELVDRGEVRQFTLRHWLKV
Experimental: as §1

5-HT1E = target: T3, 5-HT1E (Homo sapiens, UniProt P28566); test: biochemical; parameters: species or system HEK293; PDSP competitive radioligand binding, membranes of transfected HEK293 cells, filtration, Ki by Cheng-Prusoff
T3 construct: gene HTR1E
T3 sequence (P28566 whole entry): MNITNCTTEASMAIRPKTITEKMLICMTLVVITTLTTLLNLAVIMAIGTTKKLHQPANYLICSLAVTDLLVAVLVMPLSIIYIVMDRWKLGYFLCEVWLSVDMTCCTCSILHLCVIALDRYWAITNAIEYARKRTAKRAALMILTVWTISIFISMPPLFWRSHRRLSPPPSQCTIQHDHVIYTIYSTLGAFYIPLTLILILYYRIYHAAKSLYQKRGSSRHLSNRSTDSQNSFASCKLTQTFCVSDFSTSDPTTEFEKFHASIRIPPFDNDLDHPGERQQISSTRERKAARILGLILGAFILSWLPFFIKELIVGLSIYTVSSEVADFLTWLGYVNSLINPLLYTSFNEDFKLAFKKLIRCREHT
Experimental: as §1

β3 = target: T4, β3 (Homo sapiens, UniProt P13945); test: biochemical; parameters: species or system HEK293; PDSP competitive radioligand binding, membranes of transfected HEK293 cells, filtration, Ki by Cheng-Prusoff
T4 construct: gene ADRB3
T4 sequence (P13945 whole entry): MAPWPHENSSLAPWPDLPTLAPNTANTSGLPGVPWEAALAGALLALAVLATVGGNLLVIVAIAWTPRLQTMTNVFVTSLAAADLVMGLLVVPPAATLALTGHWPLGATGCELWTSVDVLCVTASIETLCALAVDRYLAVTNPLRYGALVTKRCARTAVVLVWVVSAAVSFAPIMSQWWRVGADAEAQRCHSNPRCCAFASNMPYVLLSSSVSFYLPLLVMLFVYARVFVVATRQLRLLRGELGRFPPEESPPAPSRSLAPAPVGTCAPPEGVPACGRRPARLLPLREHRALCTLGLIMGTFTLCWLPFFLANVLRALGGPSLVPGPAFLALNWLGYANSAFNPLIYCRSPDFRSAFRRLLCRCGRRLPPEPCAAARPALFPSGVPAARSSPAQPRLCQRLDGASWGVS
Experimental: as §1

5-HT6 = target: T5, 5-HT6 (Homo sapiens, UniProt P50406); test: biochemical; parameters: species or system HEK293; PDSP competitive radioligand binding, membranes of transfected HEK293 cells, filtration, Ki by Cheng-Prusoff
T5 construct: gene HTR6
T5 sequence (P50406 whole entry): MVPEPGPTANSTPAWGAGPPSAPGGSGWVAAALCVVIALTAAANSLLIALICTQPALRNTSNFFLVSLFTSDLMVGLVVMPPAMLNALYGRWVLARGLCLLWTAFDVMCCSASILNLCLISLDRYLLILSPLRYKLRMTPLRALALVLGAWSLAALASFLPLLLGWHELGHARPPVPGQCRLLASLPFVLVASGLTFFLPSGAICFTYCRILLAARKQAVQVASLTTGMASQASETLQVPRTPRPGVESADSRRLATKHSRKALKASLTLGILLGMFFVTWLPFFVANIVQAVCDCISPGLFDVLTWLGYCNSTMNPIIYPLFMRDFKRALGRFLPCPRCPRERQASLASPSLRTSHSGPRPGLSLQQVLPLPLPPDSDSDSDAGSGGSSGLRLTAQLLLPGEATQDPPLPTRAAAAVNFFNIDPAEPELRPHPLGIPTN
Experimental: as §1

HTR1A = target: T6, HTR1A (Homo sapiens, UniProt P08908); test: biochemical; parameters: species or system HEK293; PDSP competitive radioligand binding, membranes of transfected HEK293 cells, filtration, Ki by Cheng-Prusoff
T6 sequence (P08908 1-422): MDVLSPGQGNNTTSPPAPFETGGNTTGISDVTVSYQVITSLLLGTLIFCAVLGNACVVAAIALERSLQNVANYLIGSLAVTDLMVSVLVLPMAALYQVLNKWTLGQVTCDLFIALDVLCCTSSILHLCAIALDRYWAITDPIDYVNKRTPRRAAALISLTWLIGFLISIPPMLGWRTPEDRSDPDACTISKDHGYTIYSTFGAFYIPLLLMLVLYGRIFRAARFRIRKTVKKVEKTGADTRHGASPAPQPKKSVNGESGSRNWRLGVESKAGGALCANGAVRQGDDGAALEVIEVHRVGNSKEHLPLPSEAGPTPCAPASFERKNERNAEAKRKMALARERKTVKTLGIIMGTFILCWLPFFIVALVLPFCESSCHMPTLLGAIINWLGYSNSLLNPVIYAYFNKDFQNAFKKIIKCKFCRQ
Experimental: as §1

HRH4 = HRH4 (Homo sapiens, UniProt Q9H3N8); test: biochemical; parameters: species or system HEK293; PDSP competitive radioligand binding, membranes of transfected HEK293 cells, filtration, Ki by Cheng-Prusoff
HRH4, sequence (Q9H3N8 whole entry): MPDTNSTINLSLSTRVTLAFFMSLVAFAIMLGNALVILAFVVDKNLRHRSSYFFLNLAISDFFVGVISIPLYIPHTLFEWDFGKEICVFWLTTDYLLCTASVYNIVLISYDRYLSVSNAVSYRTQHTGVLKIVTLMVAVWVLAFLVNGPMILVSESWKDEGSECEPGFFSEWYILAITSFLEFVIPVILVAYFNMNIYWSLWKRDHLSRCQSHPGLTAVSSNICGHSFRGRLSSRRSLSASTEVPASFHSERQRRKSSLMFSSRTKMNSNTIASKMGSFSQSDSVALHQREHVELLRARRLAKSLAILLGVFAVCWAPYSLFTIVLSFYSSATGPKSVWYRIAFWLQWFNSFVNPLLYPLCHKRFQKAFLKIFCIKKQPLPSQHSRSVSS
Experimental: as §1

CHRM3, sequence (P20309 whole entry): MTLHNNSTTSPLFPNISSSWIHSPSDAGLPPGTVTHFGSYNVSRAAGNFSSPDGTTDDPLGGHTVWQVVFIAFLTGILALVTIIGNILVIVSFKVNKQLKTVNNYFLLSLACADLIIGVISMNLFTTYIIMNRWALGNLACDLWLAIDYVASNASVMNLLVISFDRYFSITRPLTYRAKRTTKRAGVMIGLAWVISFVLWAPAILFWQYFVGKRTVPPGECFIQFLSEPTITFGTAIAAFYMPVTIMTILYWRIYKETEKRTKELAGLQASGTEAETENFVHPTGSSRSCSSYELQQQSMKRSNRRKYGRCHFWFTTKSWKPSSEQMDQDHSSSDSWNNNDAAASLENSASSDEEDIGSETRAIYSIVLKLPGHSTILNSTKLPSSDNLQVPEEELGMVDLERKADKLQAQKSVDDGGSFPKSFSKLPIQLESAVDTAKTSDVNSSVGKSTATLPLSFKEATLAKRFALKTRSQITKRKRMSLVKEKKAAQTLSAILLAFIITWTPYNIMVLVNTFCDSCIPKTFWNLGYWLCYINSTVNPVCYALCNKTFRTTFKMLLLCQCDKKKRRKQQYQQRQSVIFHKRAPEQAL
HTR2A, sequence (P28223 whole entry): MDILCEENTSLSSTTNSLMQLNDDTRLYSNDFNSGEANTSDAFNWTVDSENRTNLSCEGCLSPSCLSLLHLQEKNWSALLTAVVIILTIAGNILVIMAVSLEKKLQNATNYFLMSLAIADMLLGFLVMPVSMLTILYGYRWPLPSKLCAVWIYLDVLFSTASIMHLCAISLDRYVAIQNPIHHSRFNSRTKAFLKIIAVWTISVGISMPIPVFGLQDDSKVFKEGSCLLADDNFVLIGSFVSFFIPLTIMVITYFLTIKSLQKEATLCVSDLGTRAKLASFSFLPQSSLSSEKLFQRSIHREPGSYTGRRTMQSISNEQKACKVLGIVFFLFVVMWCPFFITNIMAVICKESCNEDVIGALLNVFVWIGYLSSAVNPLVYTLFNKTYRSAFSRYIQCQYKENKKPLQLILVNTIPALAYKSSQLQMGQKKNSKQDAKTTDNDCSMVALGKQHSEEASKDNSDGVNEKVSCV

| SMILES | Emax (HTR2A) [%] | pEC50 (CHRM3) | Ki (DRD1) [µM] | Ki (5-HT4) [µM] | pKi (DAT) | pKi (5-HT1E) | pKi (β3) | pKi (5-HT6) | pKi (HTR1A) | pKi (HRH4) |
| --- | --- | --- | --- | --- | --- | --- | --- | --- | --- | --- |
| CCCCCCOc1nsnc1C1=CCCNC1 [N-desmethylxanomeline] | 98.1 | 6.42 | 2.34 | 3.72 | – | – | – | – | – | – |
| CCCCCCOc1nsnc1C1=CCCN(C)C1 [Xanomeline] | – | – | – | – | < 5.00 | < 5.00 | < 5.00 | 5.40 | 5.23 | < 5.00 |
